Assay results: patent US20050054587A1, “Novel therapeutic indication of azithromycin for treatment of non-infective inflamatory diseases” (priority 2001, published 2005)

Tests used:
Assay type in all cases: in vivo, human
myeloperoxidase (MPO) = experiment: Myeloperoxidase cytochemical score in blood smear neutrophils, healthy volunteer trial; details: healthy volunteers, azithromycin 3×500 mg, baseline 337 ± 29, score 0-400
Procedure: (§1) A trial on healthy volunteers was conducted and the influence of azithromycin given in a dosage of 3×500 mg on selected inflammation-relevant parameters was followed up.
(§2) Each subject received two standard 250 mg capsules of azithromycin (Sumamed®, PLIVA Zagreb) on three consecutive days. Immediately before the treatment and 2 h and 30 min, 24 h and 28 days after the third and last dose of azithromycin blood was collected from the cubital vein into EDTA-containing tubes. Aliquots were taken for cell counting, smear preparation, polymorphonuclear cell and serum isolation.
The activity of MPO was assessed from the intensity of staining of neutrophils in blood smears and in cell lysates by ELISA. After fixation in ethanol-formaldehyde, smears were incubated in a substrate solution containing hydrogen peroxide and benzidine (SIGMA). After incubation, smears were counterstained with Giemsa solution. MPO value positivity_of 100 granulocytes was evaluated and scored from 0 to 4+ on the basis of the intensity of the precipitated dye in cytoplasm. Therefore, the value of the score could be from 0 to 400. Normal values of score range (290-390) were taken from this study before azithromycin administration. MPO activity was also evaluated on the digital image of smear taken with a digital camera under the high magnification (×1000) of light microscope. MPO activities in blood smear neutrophils decreased from 2 h and 30 min to 24 h after the last azithromycin dose and returned to baseline after 28 days (Table 1). The change in neutrophil enzyme protein followed the same pattern as that in intracellular enzyme activity, decreasing from 2 h and 30 min to 24 h after the last dose of azithromycin and returning to baseline after 28 days. Both methodological approaches of MPO determination confirmed each other. Degranulation presented with lower MPO neutrophil density determined_with cytochemistry was associated with lower MPO ELISA concentrations in neutrophil lysates.

granulocytes = experiment: Apoptotic cells by morphology of blood smears; details: healthy volunteers, azithromycin 3×500 mg, baseline 0.333 ± 0.655
Procedure: as §1, §2
Three-day administration of azithromycin exerted a delayed pro-apoptotic effect on granulocytes, as indicated by morphology of blood smears. The number of apoptotic cells counted increased continuously after the three day dosing with azithromycin, achieving statistical significance 28 days after the last dose.

[1] = system: azurophilic granules of neutrophils; experiment: Release of glycosidases from azurophilic granules (NAGA and β-glucuronidase); details: healthy volunteers, 3×500 mg; within 24 hours after the last dose
Procedure: as §1, §2
Glycosidases are enzymes that catalyse hydrolysis of glycosidic bonds of oligosacharides and other glycosides. They are specific to the glycosidic part of substrate molecule. N-acetyl-β-D-glucosaminidase (NAGA) and β-glucuronidase are such enzymes. They are lysosomal enzymes, both located in azurophilic (primary; peroxidase-positive) granules of neutrophils. Since degranulation of neutrophils is present during inflammation, many authors choose these enzymes as markers of degranulation and for estimation of neutrophil reactivity. The catalytic concentration of both enzymes in serum and in neutrophil lysates was determined using the fluorimetric method described by O'Brien et al. (New Engl. J. Med. (1970) 283: 15-20) for NAGA and Glaser & Sly (J. Lab. Clin. Med. (1973) 82: 969) for β-glucuronidase. […]

[2] = system: N-acetyl-β-D-glucosaminidase (NAGA); experiment: NAGA activity in neutrophil (PMN) lysates, fluorimetric; details: healthy volunteers; for NAGA (PMN): azithromycin 3×500 mg, baseline 4.15 ± 01.6
Procedure: as §1, §2
Glycosidases are enzymes that catalyse hydrolysis of glycosidic bonds of oligosacharides and other glycosides. They are specific to the glycosidic part of substrate molecule. N-acetyl-β-D-glucosaminidase (NAGA) and β-glucuronidase are such enzymes. They are lysosomal enzymes, both located in azurophilic (primary; peroxidase-positive) granules of neutrophils. Since degranulation of neutrophils is present during inflammation, many authors choose these enzymes as markers of degranulation and for estimation of neutrophil reactivity. The catalytic concentration of both enzymes in serum and in neutrophil lysates was determined using the fluorimetric method described by O'Brien et al. (New Engl. J. Med. (1970) 283: 15-20) for NAGA and Glaser & Sly (J. Lab. Clin. Med. (1973) 82: 969) for β-glucuronidase.

[3] = system: glutathione peroxidase (GSHPx); experiment: Glutathione peroxidase activity in PMN lysates (RANSEL kit); details: healthy volunteers, azithromycin 3×500 mg, baseline 5.3 ± 2.0
Procedure: as §1, §2
Cellular glutathione peroxidase (GSHPx) is a tetrameric protein in which each of the four identical subunits contains one atom of selenium (Se) in the form of selenocysteine at the active site (Misso et al., J. Leukoc. Biol. (1998), 63: 124-130). GSHPx plays a role in H202 detoxification and converts lipid hydroperoxides to nontoxic alcohols (Akkus et al., Clin. Chim. Acta (1996), 244: 221-227); Urban et al., Biomed & Pharmacother. (1997), 51: 388-390). In this study, in healthy volunteers treated with azithromycin alterations in the PMN intracellular GSHPx activity were determined using the commercially available kit RANSEL (Randox Laboratories). GSHPx catalyses the oxidation of glutathione by cumene hydroperoxide. In the presence of glutathione reductase and NADPH the oxidised glutathione is immediately converted to the reduced form with a concomitant oxidation of NADPH to NADP^+. The decrease in absorbance at 340 nm is measured.

glutathione reductase = experiment: Glutathione reductase activity in PMN lysates (BIOXYTECH GR-340); details: healthy volunteers, azithromycin 3×500 mg, baseline 9.63 ± 1.16
Procedure: as §1, §2
Glutathione reductase is an ubiquitous enzyme that catalyses the reduction of oxidised glutathione (GSSG) to glutathione (GSH). Glutathione reductase is essential for the glutathione redox cycle that maintains adequate levels of reduced cellular GSH. GSH serves as an antioxidant, reacting with free radicals and organic peroxides, in amino acid transport, and as a substrate for the GSHPx and glutathione S-transferases in the detoxification of organic peroxides and metabolism of xenobiotics. Glutathione reductase was determined using the BIOXYTECH® GR-340™ colorimetric assay for glutathione reductase (OXIS International, Inc.). Briefly, oxidation of NADPH to NADP^+ is catalysed by a limiting concentration of glutathione reductase.

IL-6 = experiment: Serum IL-6 concentration, ELISA; details: healthy volunteers, azithromycin 3×500 mg, baseline 3.4 ± 1.05
Procedure: as §1, §2
Cytokine and chemokine concentrations were determined using ELISA kits. […] Rapid and pronounced decreases in the plasma concentrations of the neutrophil-stimulating chemokine, IL-8, and GR0-α were observed 2 h and 30 min and 24 h after the last dose of azithromycin (Table 1. The concentration of IL-8 returned essentially to baseline after 28 days, while that of GRO-[…] was decreased at this time.

CC[C@H]1OC(=O)[C@H](C)[C@@H](O[C@H]2C[C@@](C)(OC)[C@@H](O)[C@H](C)O2)[C@H](C)[C@@H](O[C@@H]2O[C@H](C)C[C@H](N(C)C)[C@H]2O)[C@](C)(O)C[C@@H](C)CN(C)[C@H](C)[C@@H](O)[C@]1(C)O [azithromycin, 9-deoxo-9-dihydro-9a-methyl-9a-aza-9a-homoerythromycin A]
myeloperoxidase (score) (myeloperoxidase (MPO); 2 h and 30 min after last dose): 326 ± 26
myeloperoxidase (score) (myeloperoxidase (MPO); 24 hours after last dose): 315 ± 22
myeloperoxidase (score) (myeloperoxidase (MPO); 28 days after last dose): 347 ± 18
APOPTOSIS (WBC) (granulocytes; 2 h and 30 min after last dose): 0.833 ± 1.029 apoptopic cells/1000 WBC
APOPTOSIS (WBC) (granulocytes; 24 hours after last dose): 1.417 ± 1.240 apoptopic cells/1000 WBC
APOPTOSIS (WBC) (granulocytes; 28 days after last dose): 2.583 ± 2.02 apoptopic cells/1000 WBC
release of enzymes from azurophilic granules [1]: 40-50%
decrease in NAGA in granulocytes ([2]; 3×500 mg, 2 h and 30 min after the last dose, vs initial values): about 70%
NAGA activity in PMN lower compared to initial values ([2]; 3×500 mg, 24 hours after the last dose): about 40%
NAGA activity in PMN increase from the 2 h and 30 min value ([2]; 3×500 mg, 24 hours later): about 30%
activity of NAGA (PMN) increased over the initial values ([2]; 3×500 mg, after 28 days): 40%
NAGA (PMN) ([2]; 2 h and 30 min after last dose): 1.13 ± 0.72 nmol × 10^−6 cells × min^−1
NAGA (PMN) ([2]; 24 hours after last dose): 2.62 ± 1.6 nmol × 10^−6 cells × min^−1
NAGA (PMN) ([2]; 28 days after last dose): 5.95 ± 3.7 nmol × 10^−6 cells × min^−1
GLUTATHION PEROXIDASE (PMN) ([3]; 2 h and 30 min after last dose): 5.3 ± 2.9 mU/10^6PMN
GLUTATHION PEROXIDASE (PMN) ([3]; 24 hours after last dose): 1.6 ± 1.3 mU/10^6PMN
GLUTATHION PEROXIDASE (PMN) ([3]; 28 days after last dose): 8.0 ± 5.2 mU/10^6PMN
GLUTATHION REDUCTASE (PMN) (glutathione reductase; 2 h and 30 min after last dose): 7.39 ± 1.23 mU/10^6PMN
GLUTATHION REDUCTASE (PMN) (glutathione reductase; 24 hours after last dose): 7.91 ± 0.87 mU/10^6PMN
GLUTATHION REDUCTASE (PMN) (glutathione reductase; 28 days after last dose): 11.27 ± 2.24 mU/10^6PMN
IL-6 (serum) (IL-6; 2 h and 30 min after last dose): 2.7 ± 1.49 pg/mL
IL-6 (serum) (IL-6; 24 hours after last dose): 2.5 ± 1.48 pg/mL
IL-6 (serum) (IL-6; 28 days after last dose): 1.15 ± 0.61 pg/mL
